Assay results reported in patent publication US10988523B2, “Modified lipidated Relaxin B chain peptides and their therapeutic use” (Sanofi, priority 2018, dated 2021).
In brackets after ≈: the same amount, converted by molar mass. Read-outs that look alike come from different tables or passages of the source. *1 amine or outer side, *2 acyl side, *3 side chain or, on linkers, in order; H or OH if unused. Where a SMILES comes first, the peptide text is derived from it. Side-chain parts run from the residue outwards. [ ]: non-standard residue; d: D form. The star is where a group is joined. X7 = CCCCCCCCCCCCCCCCCC(=O)N[C@@H](CCC(=O)N[C@@H](CCC(=O)N[C@@H](CCC(=O)NCCCOCCOCCOCCCNC(=O)COCC(=O)NCCCOCCOCCOCCCNC(=O)COCC(=O)*)C(=O)O)C(=O)O)C(=O)O; γGlu = O=C(O)[C@H](CCC(=O)[*:2])N[*:1]; Palmitoyl = CCCCCCCCCCCCCCCC(=O)*; Nle = CCCC[C@H](N)C(=O)O; AEEA = NCCOCCOCC(=O)O; Aib = CC(C)(N)C(=O)O

Legend:
[1] = Solubility testing of peptides in buffer; format: physicochemical
Procedure: Prior to the testing of solubility of a peptide batch, its purity (HPLC-UV) was determined.
Acetate Buffer 50 mM pH4.5: 0.75 g […], 3H2O (Sigma 57545)+0.35 ml CH3CO2H 100% solution dissolved in Millipore water, adjusted to pH with diluted (1:1) CH3CO2H and diluted to 250 ml with Millipore water.
In a 4 ml Ependorph vial, an accurately weighed sample of compound was diluted in study media to obtain target concentration of 2, 6 or 10 mg/ml of pure compound. The sample vials were shacked (rock 'roll shaker) for ˜19 h. 3004, Aliquots ( ) were filtered through a Millipore “Solvinert” plate (0.45 μm—PTFE hydrophilic).
pH was measured with a micro electrode
Waters Acquity UPLC System with DAD detector
Column: Waters Peptide Column CSH C18 (130 Å; 1.7 μm; 50*2.1 mm)
Column temperature: 60° C.
Full loop (about 5 μL)—overfill factor 5
Weak et Strong wash: H2O/ACN (75/25; V/V); Seal wash: H2O/IsOH (95/5; V/V). Mobile phase:
Solvent A: 0.05% TFA in H2O; Solvent B: 0.035% TFA in CH3CN
Gradient: from 0 to 12 min B=2% to 60%, from 12 to 14 min B=60% to 100%. Column washing 100% B 1 min, column equilibration 2% B 2.5 min.
UV detector: wavelength: 220 nm.

RXFP1 = target: T1, RXFP1 (Homo sapiens, UniProt Q9HBX9); assay: OVCAR5 cAMP assay (HTRF), RXFP1 agonist activity; format: cell-based; details: for Emax: OVCAR-5, maximal cAMP relative to H2-relaxin maximum (100%), read-out: EMax, OVCAR 5 cells (cAMP); for EC50: OVCAR5 cells, cAMP HTRF, read-out: EC50 (nM), OVCAR 5 cells (cAMP)
T1 construct: OVCAR5 cells expressing endogenous RXFP1; endogenous in cells; host or cells: OVCAR5 cells
T1 sequence (Q9HBX9 1-757): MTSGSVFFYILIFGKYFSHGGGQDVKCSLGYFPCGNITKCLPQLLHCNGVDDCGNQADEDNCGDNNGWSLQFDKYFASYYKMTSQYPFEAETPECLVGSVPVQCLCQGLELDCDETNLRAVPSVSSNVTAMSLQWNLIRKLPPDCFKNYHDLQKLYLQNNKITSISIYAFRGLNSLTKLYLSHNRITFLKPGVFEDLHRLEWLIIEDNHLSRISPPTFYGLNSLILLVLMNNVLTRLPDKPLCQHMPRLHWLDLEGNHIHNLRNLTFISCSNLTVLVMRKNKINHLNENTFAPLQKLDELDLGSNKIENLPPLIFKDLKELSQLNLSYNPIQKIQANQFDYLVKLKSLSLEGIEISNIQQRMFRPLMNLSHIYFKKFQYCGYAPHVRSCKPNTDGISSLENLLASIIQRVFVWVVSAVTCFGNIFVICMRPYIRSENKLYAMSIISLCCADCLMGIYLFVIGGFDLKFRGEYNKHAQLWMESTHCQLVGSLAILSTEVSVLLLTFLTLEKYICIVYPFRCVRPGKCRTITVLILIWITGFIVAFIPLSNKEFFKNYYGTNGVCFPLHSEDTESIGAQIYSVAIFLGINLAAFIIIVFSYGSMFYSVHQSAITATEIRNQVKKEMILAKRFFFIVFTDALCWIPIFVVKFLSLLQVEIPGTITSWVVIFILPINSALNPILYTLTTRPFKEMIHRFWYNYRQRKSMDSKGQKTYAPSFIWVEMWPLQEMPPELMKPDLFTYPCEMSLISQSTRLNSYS
Procedure, shortened: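 OVCAR5 cells (endogenous RXFP1) pretreated 40 min at 37° C with 1 mM IBMX, then exposed to peptides in serum-free medium for 30 min at 37° C. Lysate cAMP read by HTRF; EC50 from variable-slope sigmoidal fit; Emax as % of H2-relaxin maximal cAMP in same run.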

[2] = Stability testing of peptides in human plasma or blood; format: in vitro ADME; details: 37° C.; for Human Plasma stability % remaining T = 0: human plasma or blood, T = 0 (reference), 5 μM; for remaining at 1 h, 5 µM / remaining at 4 h, 5 µM: whole blood, human blood; for remaining at 1 h, 5 µM: read-out: Human stability in blood % remaining 1 h; for remaining at 4 h, 5 µM: read-out: Human stability in blood % remaining 4 h
Procedure: (§1) Prior to the testing of stability in plasma (or blood) of a peptide batch, its purity (HPLC-UV) was determined.
(§2) Rat and Human plasma: anti-coagulant sodium or lithium heparin.
(§3) Rat and Human blood: anti-coagulant sodium or lithium heparin. • Stock solution: • 100 μM solution of study compound in 50 mM Phosphate buffer pH 7.4. • 950 μL plasma (or blood) was pre-incubated for 5 min at 37° C. 50 μL of compound stock solution was added. Final compound concentration=5 μM. Vortex and transfer 1504, plasma (or blood) into an Eppendorf for each time point. The time points […] were carried out in duplicate for each species.
(§4) After incubation 150 μL, plasma (or blood) was extracted with 600 μL, Acetonitrile containing with 1% TFA. Then, vortexed and centrifuged 10 min at 14600 rpm. 200 μL supernatant was dried under N2. The sample was reconstituted in 200 μL of H2O/CH3CN 98/2+0.1% FA+50 ng/ml Labetalol and analyzed using the analytical system used in solubility and stability studies.
(§5) For determination of the amount of the remaining peptide, the peak areas of the target compound at t0 and each time point […] were compared, resulting in “% remaining peptide”, following the equation: % remaining peptide=[(peak area peptide time)×100]/peak area peptide t0. The stability is expressed as “% remaining peptide”.

[3] = Pharmacokinetic (PK) determination after i.v. or s.c. administration to rats; format: in vivo, Sprague Dawley rats; details: Sprague Dawley, Rat PK; for C0 / half-life: iv, 1 mg/kg i.v.; for C0: extrapolated plasma concentration at t=0, read-out: C0; for half-life / Cmax / Tmax / bioavailability: plasma; for half-life: read-out: T½ (converted); for Cmax / Tmax: sc, 3 mg/kg s.c.; for bioavailability: subcutaneous, 3 mg/kg s.c. vs 1 mg/kg i.v., dose-corrected AUC ratio
Procedure, shortened: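 Sprague Dawley rats received peptide in PBS at 1 mg/kg i.v. or 3 mg/kg s.c., dose corrected for salts, solvent and purity. Plasma analysed by LC/MS after protein precipitation; non-compartmental PK, BLQ values set to zero, F% as dose-corrected s.c./i.v. AUC ratio.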

[4] = Stability testing of peptides in rat plasma or blood; format: in vitro ADME; details: 37° C.; for Rat plasma stability % remaining T = 0: rat plasma or blood, T = 0 (reference), 5 μM; for remaining at 1 h, 5 µM / remaining at 4 h, 5 µM: whole blood, rat blood; for remaining at 1 h, 5 µM: read-out: Rat stability in blood % remaining 1 h; for remaining at 4 h, 5 µM: read-out: Rat stability in blood % remaining 4 h
Procedure: as §1, §2, §3, §4, §5

[5] = acetate buffer, pH 4.5, read-out: Solubility Acetate buffer pH 4.5
[6] = phosphate buffer, pH 7.4, read-out: Solubility phosphate buffer pH 7.4

solubility [1, 5] [µg/mL] | solubility [1, 6] [µg/mL] | Emax (RXFP1) [%] | EC50 (RXFP1) [nM] | Human Plasma stability % remaining T = 0 [2] [%] | remaining at 1 h, 5 µM [2] [%] | remaining at 4 h, 5 µM [2] [%] | C0 [3] [µM] | half-life [3] [h] | Cmax [3] [µM] | Tmax [3] [h] | bioavailability [3] [%] | Rat plasma stability % remaining T = 0 [4] [%] | remaining at 1 h, 5 µM [4] [%] | remaining at 4 h, 5 µM [4] [%] | SMILES
5600 (≈ 1310 µM) | 5600 (≈ 1310 µM) | 87 | – | – | – | – | – | – | – | – | – | – | – | – | CCCCCCCCCCCCCCCCCC(=O)N[C@@H](CCC(=O)N[C@@H](CCC(=O)N[C@@H](CCC(=O)NCCCOCCOCCOCCCNC(=O)COCC(=O)NCCCOCCOCCOCCCNC(=O)COCC(=O)NCCCC[C@H](NC(=O)[C@H](CCCCNC(C)=O)NC(=O)[C@H](CCCCN)NC(=O)[C@H](CCCNC(=N)N)NC(=O)C(C)(C)NC(=O)[C@H](CO)NC(=O)[C@H](Cc1c[nH]c2ccccc12)NC(=O)[C@@H](NC(=O)[C@H](CO)NC(=O)[C@H](CCCC)NC(=O)CNC(=O)[C@H](CCC(=O)O)NC(=O)C(C)(C)NC(=O)C(C)(C)NC(=O)[C@@H](NC(=O)[C@H](CCCCNC(C)=O)NC(=O)[C@H](C)NC(=O)[C@H](CCCNC(=N)N)NC(=O)[C@@H](NC(=O)[C@H](CCCCN)NC(=O)[C@H](CCC(=O)O)NC(=O)[C@H](CCCNC(=N)N)NC(=O)CNC(=O)[C@H](CCC(=O)O)NC(=O)[C@H](CC(C)C)NC(C)=O)C(C)C)[C@@H](C)CC)[C@@H](C)O)C(N)=O)C(=O)O)C(=O)O)C(=O)O [compound 95] (Ac-LEGREKVRAK(Ac)I[Aib][Aib]EG[Nle]STWS[Aib]RKK(Ac)K(X7)-NH2)
5900 (≈ 1440 µM) | 5900 (≈ 1440 µM) | 98 | 0.15 | – | – | – | – | – | – | – | – | – | – | – | CCCCCCCCCCCCCCCC(=O)N[C@@H](CCC(=O)NCCCC[C@H](NC(=O)CC[C@H](NC(=O)CC[C@H](NC(=O)COCCOCCNC(=O)COCCOCCNC(=O)COCCOCCNC(=O)[C@H](CCCCN)NC(=O)[C@H](CCCCN)NC(=O)[C@H](CCCCN)NC(=O)[C@H](CCCNC(=N)N)NC(=O)C(C)(C)NC(=O)[C@H](CO)NC(=O)[C@H](Cc1c[nH]c2ccccc12)NC(=O)[C@@H](NC(=O)[C@H](CO)NC(=O)[C@H](CCCC)NC(=O)CNC(=O)[C@H](CCC(=O)O)NC(=O)C(C)(C)NC(=O)C(C)(C)NC(=O)[C@@H](NC(=O)[C@H](CCC(N)=O)NC(=O)[C@H](C)NC(=O)[C@H](CCCNC(=N)N)NC(=O)[C@@H](NC(=O)[C@H](CCCCN)NC(=O)[C@H](CCC(=O)O)NC(=O)[C@H](CCCNC(=N)N)NC(=O)CNC(=O)[C@H](CCC(=O)O)NC(=O)[C@H](CC(C)C)NC(C)=O)C(C)C)[C@@H](C)CC)[C@@H](C)O)C(=O)O)C(=O)O)C(N)=O)C(=O)O [compound 109] (Ac-LEGREKVRAQI[Aib][Aib]EG[Nle]STWS[Aib]RKKK[AEEA][AEEA][AEEA][γGlu][γGlu]K([γGlu-Palmitoyl])-NH2)
– | – | 80 | – | 100 | 93 | 87 | 6.02 | 5.72 | 2.4 | 10 | 47 | 100 | 95 | 79 | CCCCCCCCCCCCCCCC(=O)N[C@@H](CCC(=O)N[C@@H](CCC(=O)N[C@@H](CCC(=O)NCCOCCOCC(=O)NCCOCCOCC(=O)NCCOCCOCC(=O)NCCCC[C@H](NC(=O)[C@H](CCCCNC(C)=O)NC(=O)[C@H](CCCCN)NC(=O)[C@H](CCCNC(=N)N)NC(=O)C(C)(C)NC(=O)[C@H](CO)NC(=O)[C@H](Cc1c[nH]c2ccccc12)NC(=O)[C@@H](NC(=O)[C@H](CO)NC(=O)[C@H](CCCC)NC(=O)CNC(=O)[C@H](CCC(=O)O)NC(=O)C(C)(C)NC(=O)C(C)(C)NC(=O)[C@@H](NC(=O)[C@H](CCCCNC(C)=O)NC(=O)[C@H](C)NC(=O)[C@H](CCCNC(=N)N)NC(=O)[C@@H](NC(=O)[C@H](CCCCN)NC(=O)[C@H](CCC(=O)O)NC(=O)[C@H](CCCNC(=N)N)NC(=O)CNC(=O)[C@H](CCC(=O)O)NC(=O)[C@H](CC(C)C)NC(C)=O)C(C)C)[C@@H](C)CC)[C@@H](C)O)C(N)=O)C(=O)O)C(=O)O)C(=O)O [compound 63] (Ac-LEGREKVRAK(Ac)I[Aib][Aib]EG[Nle]STWS[Aib]RKK(Ac)K([AEEA-AEEA-AEEA-γGlu-γGlu-γGlu-Palmitoyl])-NH2)
– | – | 87 | 17.6 | 100 | 110 | 91 | 4.77 | 4.3 | 1.7 | 6 | 53 | 100 | 110 | 93 | CCCCCCCCCCCCCCCC(=O)N[C@@H](CCC(=O)N[C@@H](CCC(=O)N[C@@H](CCC(=O)NCCCC[C@H](NC(=O)[C@H](CCCCN)NC(=O)[C@H](CCCNC(=N)N)NC(=O)C(C)(C)NC(=O)[C@H](CO)NC(=O)[C@H](Cc1c[nH]c2ccccc12)NC(=O)[C@@H](NC(=O)[C@H](CO)NC(=O)[C@H](CCSC)NC(=O)CNC(=O)[C@H](CCC(=O)O)NC(=O)C(C)(C)NC(=O)C(C)(C)NC(=O)[C@@H](NC(=O)[C@H](CCC(N)=O)NC(=O)[C@H](C)NC(=O)[C@H](CCCNC(=N)N)NC(=O)[C@@H](NC(=O)[C@H](CCCCN)NC(=O)[C@H](CCC(=O)O)NC(=O)[C@H](CCCNC(=N)N)NC(=O)CNC(=O)[C@H](CCC(=O)O)NC(=O)[C@H](CC(C)C)NC(C)=O)C(C)C)[C@@H](C)CC)[C@@H](C)O)C(N)=O)C(=O)O)C(=O)O)C(=O)O [compound 7] (Ac-LEGREKVRAQI[Aib][Aib]EGMSTWS[Aib]RKK([γGlu-γGlu-γGlu-Palmitoyl])-NH2)
